Measured values taken from the kinase profiling compilation of Christmann-Franck et al. (2016).

Experiments:
Assay in all cases: KINOMEscan competition binding
[1] = biological target: ABL1 (human), P00519 [E255K]
[2] = biological target: ABL1 (human), P00519 [Q252H]
[3] = biological target: CAMK1G (human) (UniProt Q96NX5)
[4] = biological target: CDC42BPA (human) (UniProt Q5VT25)
[5] = biological target: CLK1 (human) (UniProt P49759)
[6] = biological target: CLK2 (human) (UniProt P49760)
[7] = biological target: CSF1R (human) (UniProt P07333)
[8] = biological target: DDR2 (human) (UniProt Q16832)
[9] = biological target: EPHA4 (human) (UniProt P54764)
[10] = biological target: EPHA5 (human) (UniProt P54756)
[11] = biological target: EPHB1 (human) (UniProt P54762)
[12] = biological target: ERBB2 (human) (UniProt P04626)
[13] = biological target: ERBB4 (human) (UniProt Q15303)
[14] = biological target: ERN1 (human) (UniProt O75460)
[15] = biological target: FLT3 (human) (UniProt P36888)
[16] = biological target: FLT3 (human), P36888 [D835H]
[17] = biological target: FLT4 (human) (UniProt P35916)
[18] = biological target: FRK (human) (UniProt P42685)
[19] = biological target: GSK3A (human) (UniProt P49840)
[20] = biological target: HUNK (human) (UniProt P57058)
[21] = biological target: IKBKB (human) (UniProt O14920)
[22] = biological target: JAK2 JH1 catalytic (human) (UniProt O60674)
[23] = biological target: LIMK2 (human) (UniProt P53671)
[24] = biological target: MAP3K9 (human) (UniProt P80192)
[25] = biological target: MAP4K2 (human) (UniProt Q12851)
[26] = biological target: MAP4K5 (human) (UniProt Q9Y4K4)
[27] = biological target: MATK (human) (UniProt P42679)
[28] = biological target: MET (human), P08581 [Y1235D]
[29] = biological target: MYLK (human) (UniProt Q15746)
[30] = biological target: MYO3A (human) (UniProt Q8NEV4)
[31] = biological target: NEK5 (human) (UniProt Q6P3R8)
[32] = biological target: PI4KB (human) (UniProt Q9UBF8)
[33] = biological target: PIK3CA (human), P42336 [C420R]
[34] = biological target: PIK3CG (human) (UniProt P48736)
[35] = biological target: PRKCD (human) (UniProt Q05655)
[36] = biological target: SLK (human) (UniProt Q9H2G2)
[37] = biological target: STK39 (human) (UniProt Q9UEW8)
[38] = biological target: TAOK3 (human) (UniProt Q9H2K8)
[39] = biological target: TNK1 (human) (UniProt Q13470)
[40] = biological target: TNNI3K (human) (UniProt Q59H18)
[41] = biological target: YES1 (human) (UniProt P07947)

Sequence of DDR2 (human) (Q16832 whole entry, looked up): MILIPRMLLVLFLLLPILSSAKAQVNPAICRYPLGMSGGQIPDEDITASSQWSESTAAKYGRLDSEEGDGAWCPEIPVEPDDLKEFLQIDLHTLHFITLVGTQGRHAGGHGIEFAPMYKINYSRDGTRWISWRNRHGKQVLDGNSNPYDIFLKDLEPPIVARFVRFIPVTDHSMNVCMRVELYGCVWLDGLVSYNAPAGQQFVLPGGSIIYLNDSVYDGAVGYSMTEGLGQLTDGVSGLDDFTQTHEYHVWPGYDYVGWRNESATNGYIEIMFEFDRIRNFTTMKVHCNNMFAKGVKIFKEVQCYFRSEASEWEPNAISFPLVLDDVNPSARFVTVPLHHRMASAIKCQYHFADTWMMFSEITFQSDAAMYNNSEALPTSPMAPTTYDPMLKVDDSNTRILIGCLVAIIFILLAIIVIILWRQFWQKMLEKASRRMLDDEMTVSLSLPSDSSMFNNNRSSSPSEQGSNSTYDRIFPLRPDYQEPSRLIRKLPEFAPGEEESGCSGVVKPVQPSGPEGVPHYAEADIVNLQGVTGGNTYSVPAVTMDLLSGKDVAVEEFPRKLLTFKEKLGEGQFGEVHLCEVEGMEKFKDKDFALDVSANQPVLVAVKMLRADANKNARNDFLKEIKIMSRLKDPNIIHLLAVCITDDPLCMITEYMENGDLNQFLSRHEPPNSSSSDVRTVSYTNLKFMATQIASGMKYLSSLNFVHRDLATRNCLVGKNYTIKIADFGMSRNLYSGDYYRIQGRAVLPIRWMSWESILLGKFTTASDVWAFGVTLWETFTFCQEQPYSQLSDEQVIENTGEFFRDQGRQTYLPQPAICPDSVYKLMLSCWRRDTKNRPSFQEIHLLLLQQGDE
Sequence of SLK (human) (Q9H2G2 whole entry, looked up): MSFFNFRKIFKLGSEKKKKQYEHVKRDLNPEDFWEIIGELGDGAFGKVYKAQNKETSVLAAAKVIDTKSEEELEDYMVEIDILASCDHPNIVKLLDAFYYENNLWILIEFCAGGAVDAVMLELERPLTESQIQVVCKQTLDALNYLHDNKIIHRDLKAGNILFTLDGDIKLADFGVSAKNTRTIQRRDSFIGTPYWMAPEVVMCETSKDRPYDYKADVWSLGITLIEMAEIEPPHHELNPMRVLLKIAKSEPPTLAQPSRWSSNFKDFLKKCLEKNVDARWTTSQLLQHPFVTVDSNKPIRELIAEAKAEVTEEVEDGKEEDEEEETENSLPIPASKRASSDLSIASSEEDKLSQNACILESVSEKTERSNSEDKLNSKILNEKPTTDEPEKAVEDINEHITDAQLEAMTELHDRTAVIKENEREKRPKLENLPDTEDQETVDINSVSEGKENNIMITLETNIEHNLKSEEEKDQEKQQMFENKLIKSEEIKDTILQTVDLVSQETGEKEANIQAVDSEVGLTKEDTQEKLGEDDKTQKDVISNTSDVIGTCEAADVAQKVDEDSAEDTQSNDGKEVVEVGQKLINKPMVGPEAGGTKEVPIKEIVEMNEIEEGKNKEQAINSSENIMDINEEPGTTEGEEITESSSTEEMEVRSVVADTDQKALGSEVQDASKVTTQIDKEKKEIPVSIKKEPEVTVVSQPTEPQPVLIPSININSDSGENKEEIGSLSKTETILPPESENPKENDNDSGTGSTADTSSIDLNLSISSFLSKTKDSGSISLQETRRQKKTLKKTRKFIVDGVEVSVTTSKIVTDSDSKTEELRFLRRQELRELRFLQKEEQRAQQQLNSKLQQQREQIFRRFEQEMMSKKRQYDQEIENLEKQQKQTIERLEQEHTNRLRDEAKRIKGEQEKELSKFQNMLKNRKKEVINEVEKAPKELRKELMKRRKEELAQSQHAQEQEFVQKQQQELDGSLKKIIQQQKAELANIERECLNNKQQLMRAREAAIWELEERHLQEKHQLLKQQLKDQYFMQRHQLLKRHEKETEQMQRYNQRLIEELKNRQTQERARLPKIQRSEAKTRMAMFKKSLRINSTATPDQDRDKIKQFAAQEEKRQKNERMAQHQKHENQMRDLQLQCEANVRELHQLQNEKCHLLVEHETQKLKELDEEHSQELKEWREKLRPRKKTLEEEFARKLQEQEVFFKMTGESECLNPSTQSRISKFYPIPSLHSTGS
Sequence of HUNK (human) (P57058 whole entry, looked up): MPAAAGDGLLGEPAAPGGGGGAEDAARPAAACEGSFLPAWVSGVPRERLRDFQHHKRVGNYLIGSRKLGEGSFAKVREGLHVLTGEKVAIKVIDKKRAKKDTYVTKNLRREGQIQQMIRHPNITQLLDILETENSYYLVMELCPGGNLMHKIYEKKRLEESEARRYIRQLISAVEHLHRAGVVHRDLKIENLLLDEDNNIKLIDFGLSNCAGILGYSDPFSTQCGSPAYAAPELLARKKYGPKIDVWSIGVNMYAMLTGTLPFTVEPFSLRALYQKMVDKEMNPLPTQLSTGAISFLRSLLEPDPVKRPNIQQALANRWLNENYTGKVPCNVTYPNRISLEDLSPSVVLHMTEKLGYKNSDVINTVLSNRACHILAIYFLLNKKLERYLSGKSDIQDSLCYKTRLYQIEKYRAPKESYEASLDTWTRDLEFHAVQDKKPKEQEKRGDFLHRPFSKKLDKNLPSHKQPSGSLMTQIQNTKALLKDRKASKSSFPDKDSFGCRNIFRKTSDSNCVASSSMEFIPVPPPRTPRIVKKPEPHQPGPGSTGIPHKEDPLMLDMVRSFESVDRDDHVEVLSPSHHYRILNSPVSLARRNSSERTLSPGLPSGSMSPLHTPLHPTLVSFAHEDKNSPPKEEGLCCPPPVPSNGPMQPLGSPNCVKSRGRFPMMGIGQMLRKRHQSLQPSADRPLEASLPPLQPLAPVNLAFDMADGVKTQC
Sequence of ERN1 (human) (O75460 whole entry, looked up): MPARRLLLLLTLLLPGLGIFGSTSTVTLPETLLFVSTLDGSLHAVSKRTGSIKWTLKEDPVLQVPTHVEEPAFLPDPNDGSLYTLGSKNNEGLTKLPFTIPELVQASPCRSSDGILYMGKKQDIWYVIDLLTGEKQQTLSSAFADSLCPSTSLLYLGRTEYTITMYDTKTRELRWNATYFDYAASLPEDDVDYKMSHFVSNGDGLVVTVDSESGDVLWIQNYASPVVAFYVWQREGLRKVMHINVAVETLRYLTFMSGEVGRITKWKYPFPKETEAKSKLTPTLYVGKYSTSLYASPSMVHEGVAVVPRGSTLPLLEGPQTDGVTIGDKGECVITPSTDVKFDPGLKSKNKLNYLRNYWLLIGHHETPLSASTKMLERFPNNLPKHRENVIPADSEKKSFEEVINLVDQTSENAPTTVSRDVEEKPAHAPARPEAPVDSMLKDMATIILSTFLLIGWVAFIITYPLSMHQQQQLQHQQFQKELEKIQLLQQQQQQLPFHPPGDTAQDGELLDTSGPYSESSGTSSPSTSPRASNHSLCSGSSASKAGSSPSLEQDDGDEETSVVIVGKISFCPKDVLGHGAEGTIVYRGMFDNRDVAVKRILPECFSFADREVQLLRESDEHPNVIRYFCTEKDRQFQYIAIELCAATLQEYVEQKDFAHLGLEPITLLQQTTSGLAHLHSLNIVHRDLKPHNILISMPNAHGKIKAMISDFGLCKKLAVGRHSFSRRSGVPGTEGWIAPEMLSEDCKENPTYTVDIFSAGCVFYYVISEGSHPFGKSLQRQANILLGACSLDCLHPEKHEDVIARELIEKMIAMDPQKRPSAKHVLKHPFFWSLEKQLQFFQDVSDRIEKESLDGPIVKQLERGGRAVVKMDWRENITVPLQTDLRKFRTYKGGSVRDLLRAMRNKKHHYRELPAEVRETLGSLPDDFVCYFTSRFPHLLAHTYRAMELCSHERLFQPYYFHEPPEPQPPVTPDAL
Sequence of TAOK3 (human) (Q9H2K8 whole entry, looked up): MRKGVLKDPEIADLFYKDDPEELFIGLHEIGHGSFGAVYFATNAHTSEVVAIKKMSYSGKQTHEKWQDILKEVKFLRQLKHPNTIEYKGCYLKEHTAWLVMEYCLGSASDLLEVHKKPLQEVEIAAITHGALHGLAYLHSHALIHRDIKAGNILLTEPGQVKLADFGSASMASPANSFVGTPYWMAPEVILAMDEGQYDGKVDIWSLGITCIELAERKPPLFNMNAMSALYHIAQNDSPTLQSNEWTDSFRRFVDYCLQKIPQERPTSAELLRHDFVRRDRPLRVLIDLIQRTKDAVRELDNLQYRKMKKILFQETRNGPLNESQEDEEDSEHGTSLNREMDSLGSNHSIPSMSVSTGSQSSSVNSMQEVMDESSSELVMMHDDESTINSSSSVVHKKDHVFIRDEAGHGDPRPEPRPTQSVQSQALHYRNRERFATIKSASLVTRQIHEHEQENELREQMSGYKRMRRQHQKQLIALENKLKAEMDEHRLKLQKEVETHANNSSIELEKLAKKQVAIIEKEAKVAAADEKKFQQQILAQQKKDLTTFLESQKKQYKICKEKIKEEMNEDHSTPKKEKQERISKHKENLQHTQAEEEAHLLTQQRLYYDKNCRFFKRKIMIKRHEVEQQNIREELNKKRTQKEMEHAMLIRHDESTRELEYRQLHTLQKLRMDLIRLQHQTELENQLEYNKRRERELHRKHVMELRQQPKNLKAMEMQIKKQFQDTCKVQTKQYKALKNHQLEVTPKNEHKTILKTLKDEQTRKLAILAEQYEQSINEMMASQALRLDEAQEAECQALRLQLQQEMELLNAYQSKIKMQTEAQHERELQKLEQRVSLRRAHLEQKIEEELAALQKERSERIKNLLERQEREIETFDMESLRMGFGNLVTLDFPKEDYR

SMILES: COc1cc2ncnc(Oc3cccc(NC(=O)Nc4cc(C(C)(C)C(F)(F)F)on4)c3)c2cc1OC
- Kd [1]: 6.5 nM
- Kd [2]: 9.9 nM
- Kd [3]: 30000 nM
- Kd [4]: 30000 nM
- Kd [5]: 10000 nM
- Kd [6]: 21000 nM
- Kd [7]: 8.6 nM
- Kd [8]: 5.4 nM
- Kd [9]: 31 nM
- Kd [10]: 56 nM
- Kd [11]: 150 nM
- Kd [12]: 240 nM
- Kd [13]: 210 nM
- Kd [14]: 19000 nM
- Kd [15]: 4.2 nM
- Kd [16]: 67 nM
- Kd [17]: 9.3 nM
- Kd [18]: 9.6 nM
- Kd [19]: 6000 nM
- Kd [20]: 12000 nM
- Kd [21]: 960 nM
- Kd [22]: 14000 nM
- Kd [23]: 3800 nM
- Kd [24]: 1500 nM
- Kd [25]: 980 nM
- Kd [26]: 29 nM
- Kd [27]: 26000 nM
- Kd [28]: 260 nM
- Kd [29]: 27000 nM
- Kd [30]: 15000 nM
- Kd [31]: 28000 nM
- Kd [32]: 29000 nM
- Kd [33]: 30000 nM
- Kd [34]: 30000 nM
- Kd [35]: 1200 nM
- Kd [36]: 20 nM
- Kd [37]: 37000 nM
- Kd [38]: 1600 nM
- Kd [39]: 150 nM
- Kd [40]: 28 nM
- Kd [41]: 160 nM
